# Measured values from US11883389B2, “Formulations of 2-(4-chlorophenyl)-N-((2-(2,6- dioxopiperidin-3-yl)-1-oxoisoindolin-5-yl)methyl)-2,2-difluoroacetamide” (Celgene Corporation, priority 2016, dated 2024).
# What was measured:
# [1] = hygroscopicity / dynamic vapor sorption analysis; format: physicochemical; settings: for water uptake (DVS): RH increased from about 0% to about 90% RH
# Experimental: In certain embodiments, Form A is characterized by dynamic vapor sorption analysis. […] In certain embodiments, Form A comprises less than 0.1% water as determined in a coulometric Karl Fischer (KF) titrator equipped with an oven sample processor set at 225° C.
# In certain embodiments, Form B is characterized by dynamic vapor sorption analysis. […] In certain embodiments, Form B comprises less than 0.1% water as determined in a coulometric Karl Fischer (KF) titrator equipped with an oven sample processor set at 225° C.
# In certain embodiments, Form C is characterized by dynamic vapor sorption analysis. […] In certain embodiments, Form C comprises less than 0.1% water as determined in a coulometric Karl Fischer (KF) titrator equipped with an oven sample processor set at 225° C.
# physchem [2] = format: physicochemical; settings: organic solvent or mixture
# Text: Due to the poor water solubility of Compound 1, Form C, a cosolvent system was required to solubilize the drug compound in a solution prior to lyophilization. Several solubilizing agents and solvents that were considered in this example include hydroxypropyl-beta-cyclodextrin (HPβCD), Sulfobutylether-β-cyclodextrin sodium salt (SBEβCD; Captisol®), Tert-butyl alcohol (TBA), and dimethylacetamide (DMA).
# When the SBEβCD concentration increased from 30% to 40%, the enhancement in drug solubility was very limited.
# physchem [3] = settings: aqueous buffer
# [4] = pH 5
SMILES,water uptake (DVS) [1],solubility (physchem [2]) [mg/mL],Hygroscopicity [1],solubility (physchem [3]) [mg/mL],Solution Stability [4]
"O=C1CCC(N2Cc3cc(CNC(=O)C(F)(F)c4ccc(Cl)cc4)ccc3C2=O)C(=O)N1 (single isomer, unassigned) [Form A, 2-(4-Chlorophenyl)-N-((2-(2,6-dioxopiperidin-3-yl)-1-oxoisoindolin-5-yl)methyl)-2,2-difluoroacetamide]",about 1.2 % w/w,,,,
"O=C1CCC(N2Cc3cc(CNC(=O)C(F)(F)c4ccc(Cl)cc4)ccc3C2=O)C(=O)N1 (single isomer, unassigned) [Form C, 2-(4-Chlorophenyl)-N-((2-(2,6-dioxopiperidin-3-yl)-1-oxoisoindolin-5-yl)methyl)-2,2-difluoroacetamide]",about 0.6 % w/w,< 166,,,
"O=C1CCC(N2Cc3cc(CNC(=O)C(F)(F)c4ccc(Cl)cc4)ccc3C2=O)C(=O)N1 (stereo not shown) [Form B, 2-(4-chlorophenyl)-N-((2-(2,6-dioxopiperidin-3-yl)-1-oxoisoindolin-5-yl)methyl)-2,2-difluoroacetamide]",about 1.4 % w/w,,,,
"O=C1CCC(N2Cc3cc(CNC(=O)C(F)(F)c4ccc(Cl)cc4)ccc3C2=O)C(=O)N1 (stereo not shown) [Compound 1, 2-(4-chlorophenyl)-N-((2-(2,6-dioxopiperidin-3-yl)-1-oxoisoindolin-5-yl)methyl)-2,2-difluoroacetamide]",,,Not hygroscopic,≤ 0.001,DS is not stable in solution at pH of 5.0 or above.
